# Molecular target: T1, GCase (Homo sapiens, UniProt P04062)
# T1 construct: endogenous in cells; host or cells: HeLa cells
# T1 sequence (P04062 40-536): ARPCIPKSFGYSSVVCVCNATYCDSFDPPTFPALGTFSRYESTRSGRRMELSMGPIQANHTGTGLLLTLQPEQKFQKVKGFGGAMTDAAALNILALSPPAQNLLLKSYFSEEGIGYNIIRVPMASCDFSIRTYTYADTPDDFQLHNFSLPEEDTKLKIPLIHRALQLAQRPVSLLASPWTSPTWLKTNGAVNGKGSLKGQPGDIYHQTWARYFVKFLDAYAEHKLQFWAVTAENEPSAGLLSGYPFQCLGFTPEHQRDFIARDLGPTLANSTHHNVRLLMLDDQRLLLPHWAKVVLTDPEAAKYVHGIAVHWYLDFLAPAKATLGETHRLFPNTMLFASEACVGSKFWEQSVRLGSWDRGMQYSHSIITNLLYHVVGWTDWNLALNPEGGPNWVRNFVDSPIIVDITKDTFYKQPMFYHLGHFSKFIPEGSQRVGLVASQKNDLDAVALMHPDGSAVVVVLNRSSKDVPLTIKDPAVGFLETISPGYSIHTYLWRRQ
# Assay: activation of GCase in a live cell PFB assay in HELA cells
# Type: cell-based
# Settings: EC50 given as range classes
# Description: Exemplary compounds were evaluated for activation of GCase in a live cell PFB assay in HELA cells (essentially as described in Ysselstein et al., “LRRK2 kinase activity regulates lysosomal glucocerebrosidase in neurons derived from Parkinson's disease patients” Nature Communications (2019) 10:5570). […] EC50 ranges: A: <10 μM; B: >10-50 μM; C: >50-100 μM; D: >100 μM.
row,SMILES,EC50 [µM]
1,Cc1ncc(N2CCC3(CCN(c4cnc5cnn(CC(F)F)c5n4)CC3)C2)c(C(F)(F)F)n1 [Cmpd 601],< 10
2,Cc1nn(CC(F)(F)F)c2nc(N3CCC4(CN(c5cnc(C(F)(F)F)nc5)C4)C3)cnc12 [Cmpd 605],> 100
3,Cc1nc(N2CCC3(CCN(c4cnc5c(C)nn(CC(F)(F)F)c5n4)CC3)C2)cc(C(F)(F)F)n1 [Cmpd 611],> 100
4,FC(F)Cn1ncc2ncc(N3CCC4(CC3)CN(c3cncc(C(F)(F)F)c3)CCO4)nc21 [Cmpd 206],< 10
5,O=C1CC2(CN1c1cncc(C(F)(F)F)n1)C1CCC2CN(c2cnc3cnn(CC(F)F)c3n2)C1 (stereo not shown) [Cmpd 806],10 to 50
6,"FC(F)Cn1ncc2ncc(N3CCC4(CN(c5ccc(C(F)(F)F)cn5)C4)C3)nc21 [Compound 186, 6-[1-(2,2-difluoroethyl)-1H-pyrazolo[3,4-b]pyrazin-6-yl]-2-[5-(trifluoromethyl)pyridin-2-yl]-2,6-diazaspiro[3.4]octane]",10 to 50
7,Cc1nn(CC(F)F)c2nc(N3CCC4(CC3)CC(=O)N(c3ccc(C(F)(F)F)nc3)C4)ncc12 [Cmpd 832],< 10
8,O=S(=O)(c1cncc(C(F)(F)F)c1)N1CC2(CCN(c3cnc4cnn(CC(F)F)c4n3)C2)C1 [Cmpd 413],< 10
9,Cc1cc(N2CC3(CCN(c4cnc5c(C)nn(CC(F)(F)F)c5n4)C3)C2)nc(C(F)(F)F)n1 [Cmpd 607],10 to 50
10,Cc1ncc(N2CC3(CCN(c4cnc5c(C)nn(CC(F)F)c5n4)C3)C2)c(C(F)(F)F)n1 [Cmpd 593],> 100
11,FC(F)Cn1ncc2ncc(NC3CCC4(CC3)CN(c3cncc(C(F)(F)F)c3)C4)nc21 [Cmpd 199],< 10
12,O=C1CC2(CCN(c3cnc4cnn(CC(F)F)c4n3)C2)CCN1c1cc(C(F)(F)F)ccn1 (stereo not shown) [Cmpd 793],10 to 50
13,Cc1ncc(N2CC3(CCN(c4ncc5c(C)nn(CC(F)(F)F)c5n4)C3)C2)c(C(F)(F)F)n1 [Cmpd 620],10 to 50
14,FC(F)(F)c1cc(N2CC3(CCN(c4cncc(-c5cncs5)n4)C3)C2)ccn1 [Cmpd 1029],< 10

# Same assay, conditions: activation of GCase, EC50 ranges
row,SMILES,EC50 [µM]
1,"FC(F)Cn1ncc2ncc(N3CC4(CCCN(c5ncccc5C(F)(F)F)C4)C3)nc21 [Compound 39, 2-[1-(2,2-difluoroethyl)-1H-pyrazolo[3,4-b]pyrazin-6-yl]-6-[3-(trifluoromethyl)pyridin-2-yl]-2,6-diazaspiro[3.5]nonane]",50 to 100
2,FC(F)(F)c1ncc(N2CC3(CCN(c4cnc5cnn([C@H]6CCOC6)c5n4)C3)C2)cn1 [Cmpd 654],10 to 50
3,Cc1ncc(C(F)(F)F)nc1N1CCC2(CCN(c3cnc4cnn(CC(F)F)c4n3)CC2)C1=O [Cmpd 928],10 to 50
4,O=C1N(c2ccc(C(F)(F)F)nc2)C(=O)C2(CCN(c3cnc4cnn(CC(F)F)c4n3)CC2)N1Cc1cncc(F)c1 [Cmpd 883],10 to 50
5,O=C1CC2(CCN(c3cnc4cnn(CC(F)F)c4n3)CC2)CN1c1ccc(C(F)(F)F)cn1 [Cmpd 685],10 to 50
6,FC(F)(F)c1ccc(N2CCC3(CCN(c4cncc(-c5ccccc5)n4)CC3)C2)cn1 [Cmpd 251],< 10
7,Cc1nc(C(F)(F)F)ncc1N1CCC2(CCN(c3cnc4cnn(C5COC5)c4n3)CC2)C1 [Cmpd 1056],10 to 50
8,"O=C1N(c2cc(C(F)(F)F)ccn2)C(=O)C2(CCN(c3cnc4cnn(CC(F)F)c4n3)CC2)N1Cc1ccccc1 [Compound 70, 1-benzyl-8-(1-(2,2-difluoroethyl)-1H-pyrazolo[3,4-b]pyrazin-6-yl)-3-(4-(trifluoromethyl)pyridin-2-yl)-1,3,8-triazaspiro[4.5]decane-2,4-dione]",< 10
9,FC(F)(F)c1ccc(N2CCC3(CCN(c4nccn5cncc45)CC3)C2)cn1 [Cmpd 240],50 to 100
10,Cc1nn(CC(F)F)c2nc(N3CCC4(CCN(c5ccnc(C(F)(F)F)c5)C4)C3)cnc12 (stereo not shown) [Cmpd 485],> 100
11,"O=C1N(c2cc(C(F)F)ccn2)CCC12CCN(c1cnc3cnn(CC(F)(F)F)c3n1)CC2 [Compound 166, 2-[4-(difluoromethyl)pyridin-2-yl]-8-[1-(2,2,2-trifluoroethyl)-1H-pyrazolo[3,4-b]pyrazin-6-yl]-2,8-diazaspiro[4.5]decan-1-one]",< 10
12,O=C1CC2(CCN(c3cnc4cnn(CC(F)F)c4n3)CC2)CN1Cc1ncc(C(F)(F)F)cc1F [Cmpd 963],< 10
13,Cc1nc(N2CC3(CCN(c4ncc5c(C)nn(CC(F)F)c5n4)C3)C2)cc(C(F)(F)F)n1 [Cmpd 502],< 10
14,O=C1CC2(CCN(c3cnc4cnn(CC(F)F)c4n3)CC2)CN1Cc1cncc(C(F)(F)F)c1 [Cmpd 335],10 to 50
15,FC(F)(F)c1ncc(N2CC3(CCN(c4cnc5cnn([C@@H]6CCOC6)c5n4)C3)C2)cn1 [Cmpd 655],10 to 50
16,Cc1nc(N2CCC3(C2)CN(c2cnc4cnn(CC(F)(F)F)c4n2)C3)cc(C(F)(F)F)n1 [Cmpd 552],< 10
17,Cc1nc(N2CC3(CCN(c4cc5c(cn4)cnn5CC(F)F)CC3)CC2=O)cc(C(F)(F)F)n1 [Cmpd 634],< 10
18,"O=C1CC2(CCN(c3ccc(C(F)(F)F)nc3)CC2)CN1c1cnc2cnn(CC(F)F)c2n1 [Compound 110, 2-[1-(2,2-difluoroethyl)-1H-pyrazolo[3,4-b]pyrazin-6-yl]-8-[6-(trifluoromethyl)pyridin-3-yl]-2,8-diazaspiro[4.5]decan-3-one]",10 to 50
19,Cc1cc(C(F)(F)F)ncc1N1CCC2(CCN(c3cnc4cnn(CC(F)F)c4n3)CC2)C1 [Cmpd 753],< 10
20,"FC(F)Cn1ncc2ncc(N3CCCC4(CCN(c5cccc(C(F)(F)F)n5)C4)C3)nc21 (stereo not shown) [Compound 34, 7-[1-(2,2-difluoroethyl)-1H-pyrazolo[3,4-b]pyrazin-6-yl]-2-[6-(trifluoromethyl)pyridin-2-yl]-2,7-diazaspiro[4.5]decane]",10 to 50
21,CCc1nn(CC(F)F)c2nc(N3CCC4(CN(c5cc(C(F)(F)F)nc(C)n5)C4)C3)cnc12 [Cmpd 1064],10 to 50
22,Cc1nn(C2COC2)c2nc(N3CCC4(CN(c5cnc(C(F)(F)F)nc5)C4)C3)ncc12 [Cmpd 460],< 10

row,SMILES,EC50 [µM]
1,CC1CN(c2cnc3cnn(CC(F)F)c3n2)CCC12CC(=O)N(c1cc(C(F)(F)F)ccn1)C2 (stereo not shown) [Cmpd 725],10 to 50
2,COc1nccc(CN2CC3(CCN(c4cnc5cnn(CC(F)F)c5n4)CC3)CC2=O)n1 [Cmpd 970],50 to 100
3,CCN1C(=O)N(c2ccc(C(F)(F)F)nc2)C(=O)C12CCN(c1cnc3c(C)nn(C4COC4)c3n1)CC2 [Cmpd 870],> 100
4,O=C1N(c2cc(C(F)(F)F)ccn2)C(=O)C2(CCN(c3cnc4cnn(CC(F)F)c4n3)CC2)N1Cc1cc(F)ccc1F [Cmpd 718],< 10
5,CCN1C(=O)N(c2ccc(C(F)(F)F)cc2)C(=O)C12CCN(c1cnc3cnn(CC(F)F)c3n1)CC2 [Cmpd 868],10 to 50
6,"FC(F)Cn1ncc2ncc(N3CCC4(CCN(c5cncc(C(F)(F)F)c5)CC4)C3)nc21 [Compound 153, 2-[1-(2,2-difluoroethyl)-1H-pyrazolo[3,4-b]pyrazin-6-yl]-8-[5-(trifluoromethyl)pyridin-3-yl]-2,8-diazaspiro[4.5]decane]",< 10
7,CCOc1ccc(CN2CCC3(CCN(c4cnc5cnn(CC(F)F)c5n4)CC3)C2=O)cn1 [Cmpd 356],10 to 50
8,Cc1nc(N2CCC3(CCN(c4cnc5c(C)nn(CC(F)F)c5n4)CC3)C2)cc(C(F)(F)F)n1 [Cmpd 575],> 100
9,O=C1CC2(CCN(c3cnc4cnn(CC(F)F)c4n3)CC2)CN1Cc1ccc(C(F)(F)F)cc1 [Cmpd 443],< 10
10,FC(F)Cn1ncc2ncc(N3CCC4(CC3)CN(c3cc(C(F)(F)F)ccn3)c3ccccc34)nc21 [Cmpd 259],10 to 50
11,O=C1N(c2cc(C(F)(F)F)ccn2)CCC12CCN(c1nccn3cncc13)CC2 [Cmpd 264],> 100
12,O=C1N(c2ncccc2C(F)(F)F)CCC12CCN(c1cnc3cnn(CC(F)F)c3n1)CC2 [Cmpd 679],10 to 50
13,FC(F)Cn1ncc2ncc(N3CCC4(CC3)CC(Oc3ccc(C(F)(F)F)cn3)C4)nc21 [Cmpd 710],10 to 50
14,O=C1N(c2cncc(C(F)(F)F)n2)CCC12CCN(c1cnc3cnn(CC(F)F)c3n1)CC2 [Cmpd 774],< 10
15,COc1nn(CC(F)F)c2nc(N3CCC4(CC3)CCN(c3ccc(C(F)(F)F)nc3)C4=O)cnc12 [Cmpd 835],< 10
16,Cc1nn(CC(F)F)c2nc(N3CCC4(CN(c5ccnc(C(F)(F)F)c5)C4)C3)ncc12 [Cmpd 296],< 10
17,Cc1cc(N2CC3(CCN(c4cnc5c(C)nn(CC(F)F)c5n4)C3)C2)nc(C(F)(F)F)n1 [Cmpd 464],< 10
18,"FC(F)Cn1ncc2ncc(N3CCC4(CC3)CN(c3cc(C(F)(F)F)ccn3)C4)nc21 [Compound 1, 7-[1-(2,2-difluoroethyl)-1H-pyrazolo[3,4-b]pyrazin-6-yl]-2-[4-(trifluoromethyl)pyridin-2-yl]-2,7-diazaspiro[3.5]nonane]",< 10
19,O=C1N(Cc2cc(C(F)(F)F)ccn2)CCC12CCN(c1cnc3cnn(CC(F)F)c3n1)CC2 [Cmpd 355],< 10
20,O=C(c1ccc(OC(F)(F)F)cc1)N1CC2(CCN(c3cnc4cnn(CC(F)F)c4n3)C2)C1 [Cmpd 370],10 to 50
21,Cc1nc(N2CC3(CCN(c4ncc5cnn(C(F)F)c5n4)C3)C2)cc(C(F)(F)F)n1 [Cmpd 650],< 10
22,O=C1N(Cc2cncc(F)c2)CCC12CCN(c1cnc3cnn(CC(F)F)c3n1)CC2 [Cmpd 331],10 to 50
